Experimental data reported in ChEMBL document CHEMBL5143564, “PES derivative PESA is a potent tool to globally profile cellular targets of PES” (Bioorg Med Chem Lett, 2022).
Calls of active or inactive are those of the source. The calls are words filed in the database; no cut-off is given here.

Molecular target: T1, Protein disulfide-isomerase A6 (Homo sapiens) (UniProt Q15084)
T1 sequence (whole entry): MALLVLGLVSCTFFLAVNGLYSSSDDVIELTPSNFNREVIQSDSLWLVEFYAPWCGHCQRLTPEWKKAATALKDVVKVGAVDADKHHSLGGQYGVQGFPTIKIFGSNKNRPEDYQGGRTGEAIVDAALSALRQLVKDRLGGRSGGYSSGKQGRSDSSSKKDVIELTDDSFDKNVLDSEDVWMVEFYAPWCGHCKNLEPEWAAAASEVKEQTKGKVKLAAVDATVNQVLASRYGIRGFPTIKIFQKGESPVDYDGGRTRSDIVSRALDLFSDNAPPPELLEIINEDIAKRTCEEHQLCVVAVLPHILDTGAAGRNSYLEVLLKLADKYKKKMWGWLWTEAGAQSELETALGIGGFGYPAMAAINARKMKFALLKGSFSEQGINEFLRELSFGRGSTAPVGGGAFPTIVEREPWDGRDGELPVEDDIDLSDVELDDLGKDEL
Experiment: Binding affinity to PDIA6 in human DOHH-2 cells by MS analysis
Format: cell-based

## C#Cc1cccc(C#CS(N)(=O)=O)c1
  Activity: Active
